Test results: ChEMBL document CHEMBL5356994, “Synthesis, biological and molecular modelling for 1,3,4-thiadiazole sulfonyl thioureas: bacterial and fungal activity” (RSC Med Chem, 2023)
In brackets after ≈: the same amount, converted by molar mass.

How the values were obtained:
Phytophthora infestans = assay: Antifungal activity against Phytophthora infestans assessed as inhibition of fungal growth incubated for 5 days by poison plate technique; format: functional, organism-based; details: 120 h
Bacillus subtilis = assay: Antibacterial activity against Bacillus subtilis assessed as inhibition of bacterial growth incubated for 18 to 20 hrs by microbroth dilution method; format: functional; details: time 18-20 hrs
Clostridioides difficile = assay: Antibacterial activity against Clostridium difficile assessed as inhibition of bacterial growth incubated for 18 to 20 hrs by microbroth dilution method; format: functional; details: time 18-20 hrs
Staphylococcus aureus [1] = assay: Antibacterial activity against Staphylococcus aureus assessed as inhibition of bacterial growth incubated for 18 to 20 hrs by microbroth dilution method; format: functional; details: time 18-20 hrs
[2] = test system: Staphylococcus epidermidis; assay: Antibacterial activity against Staphylococcus epidermidis assessed as inhibition of bacterial growth incubated for 18 to 20 hrs by microbroth dilution method; format: functional; details: time 18-20 hrs
Streptococcus pneumoniae = assay: Antibacterial activity against Streptococcus pneumoniae assessed as inhibition of bacterial growth incubated for 18 to 20 hrs by microbroth dilution method; format: functional; details: time 18-20 hrs
Escherichia coli [3] = assay: Antibacterial activity against Escherichia coli assessed as inhibition of bacterial growth incubated for 18 to 20 hrs by microbroth dilution method; format: functional; details: time 18-20 hrs
Klebsiella pneumoniae = assay: Antibacterial activity against Klebsiella pneumoniae assessed as inhibition of bacterial growth incubated for 18 to 20 hrs by microbroth dilution method; format: functional; details: time 18-20 hrs
Pseudomonas aeruginosa = assay: Antibacterial activity against Pseudomonas aeruginosa assessed as inhibition of bacterial growth incubated for 18 to 20 hrs by microbroth dilution method; format: functional; details: time 18-20 hrs
Salmonella typhimurium = assay: Antibacterial activity against Salmonella typhimurium assessed as inhibition of bacterial growth incubated for 18 to 20 hrs by microbroth dilution method; format: functional, Salmonella enterica subsp. enterica serovar Typhimurium; details: Salmonella enterica; time 18-20 hrs
Aspergillus niger = assay: Antifungal activity against Aspergillus niger assessed as inhibition of fungal growth incubated for 72 hrs by agar dilution method; format: functional
Aspergillus flavus [4] = assay: Antifungal activity against Aspergillus flavus assessed as inhibition of fungal growth incubated for 72 hrs by agar dilution method; format: functional
Candida albicans [5] = assay: Antifungal activity against Candida albicans assessed as inhibition of fungal growth incubated for 72 hrs by agar dilution method; format: functional
Saccharomyces cerevisiae = assay: Antifungal activity against Saccharomyces cerevisiae assessed as inhibition of fungal growth incubated for 72 hrs by agar dilution method; format: functional
Fusarium oxysporum = assay: Antifungal activity against Fusarium oxysporum assessed as inhibition of fungal growth incubated for 72 hrs by agar dilution method; format: functional
Carbonic anhydrase 2 = Carbonic anhydrase 2 (Homo sapiens, UniProt P00918); assay: Inhibition of human carbonic anhydrase II esterase activity using p-nitrophenol acetate as substrate and measured for 3 mins by UV/visible spectrophotometric analysis
DNA gyrase subunit B = DNA gyrase subunit B (Staphylococcus aureus, UniProt P0A0K8); assay: Inhibition of Staphylococcus aureus DNA gyrase subunit B ATPase activity using relaxed pNO1 plasmid as substrate incubated for 30 mins by microplate reader analysis
DNA gyrase subunit B, sequence (P0A0K8 whole entry): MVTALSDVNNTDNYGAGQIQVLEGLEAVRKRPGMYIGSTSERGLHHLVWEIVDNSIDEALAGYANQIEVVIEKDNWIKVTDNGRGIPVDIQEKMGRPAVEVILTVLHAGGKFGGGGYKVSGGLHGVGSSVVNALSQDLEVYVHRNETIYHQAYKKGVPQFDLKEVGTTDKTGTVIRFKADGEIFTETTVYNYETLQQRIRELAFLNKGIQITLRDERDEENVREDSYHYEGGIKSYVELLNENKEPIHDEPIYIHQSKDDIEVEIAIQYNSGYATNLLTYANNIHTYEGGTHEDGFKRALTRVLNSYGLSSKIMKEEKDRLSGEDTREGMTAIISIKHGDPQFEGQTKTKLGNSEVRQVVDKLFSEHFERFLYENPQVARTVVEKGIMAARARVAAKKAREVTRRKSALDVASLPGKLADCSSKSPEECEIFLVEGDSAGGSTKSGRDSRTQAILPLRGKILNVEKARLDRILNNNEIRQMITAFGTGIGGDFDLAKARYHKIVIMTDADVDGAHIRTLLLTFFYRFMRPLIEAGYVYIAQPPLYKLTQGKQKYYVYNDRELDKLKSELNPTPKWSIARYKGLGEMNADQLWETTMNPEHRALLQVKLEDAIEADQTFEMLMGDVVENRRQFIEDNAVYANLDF

[6] = target: DNA topoisomerase 4 subunit B (Staphylococcus aureus, UniProt P0C1S7); assay: Inhibition of Staphylococcus aureus DNA topoisomerase 4 subunit B ATPase activity using relaxed pNO1 plasmid as substrate incubated for 30 mins by microplate reader analysis
DNA topoisomerase 4 subunit B, sequence (P0C1S7 whole entry): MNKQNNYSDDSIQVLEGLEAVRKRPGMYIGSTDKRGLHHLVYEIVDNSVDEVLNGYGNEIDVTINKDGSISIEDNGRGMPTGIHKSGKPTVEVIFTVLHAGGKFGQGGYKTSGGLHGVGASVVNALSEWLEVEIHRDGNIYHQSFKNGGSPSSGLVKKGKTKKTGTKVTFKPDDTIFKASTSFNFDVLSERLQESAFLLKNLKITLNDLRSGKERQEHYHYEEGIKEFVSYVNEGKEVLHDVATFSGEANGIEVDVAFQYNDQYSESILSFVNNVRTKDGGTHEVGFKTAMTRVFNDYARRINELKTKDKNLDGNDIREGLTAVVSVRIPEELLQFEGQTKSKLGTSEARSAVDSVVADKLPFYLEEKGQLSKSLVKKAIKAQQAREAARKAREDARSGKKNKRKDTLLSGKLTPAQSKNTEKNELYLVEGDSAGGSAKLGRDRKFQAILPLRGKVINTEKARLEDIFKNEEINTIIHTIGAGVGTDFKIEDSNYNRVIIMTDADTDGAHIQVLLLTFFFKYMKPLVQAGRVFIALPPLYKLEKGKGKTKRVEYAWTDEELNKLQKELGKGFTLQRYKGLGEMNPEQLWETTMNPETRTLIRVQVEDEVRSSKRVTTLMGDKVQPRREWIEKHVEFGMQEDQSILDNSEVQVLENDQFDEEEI

Dihydrofolate reductase = Dihydrofolate reductase (Staphylococcus aureus, UniProt P0A017); assay: Inhibition of Staphylococcus aureus dihydrofolate reductase using dihydrofolate as substrate in presence of NADPH by microplate reader analysis
Dihydrofolate reductase, sequence (P0A017 whole entry): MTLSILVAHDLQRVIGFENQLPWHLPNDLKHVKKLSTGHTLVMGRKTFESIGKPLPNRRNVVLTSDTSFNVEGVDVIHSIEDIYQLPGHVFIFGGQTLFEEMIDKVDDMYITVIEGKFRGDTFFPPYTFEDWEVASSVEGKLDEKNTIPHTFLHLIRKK

[7] = test system: Mycobacterium tuberculosis; assay: Antitubercular activity against Mycobacterium tuberculosis H37Rv assessed as inhibition of bacterial growth incubated for 24 hrs by two-fold dilution method; format: functional
Staphylococcus aureus [8] = assay: Antibacterial activity against Staphylococcus aureus assessed as inhibition of bacterial growth incubated for 16 to 18 hrs by serial dilution method; format: functional; details: time 16-18 hrs
Escherichia coli [9] = assay: Antibacterial activity against Escherichia coli assessed as inhibition of bacterial growth incubated for 16 to 18 hrs by serial dilution method; format: functional; details: time 16-18 hrs
Candida albicans [10] = assay: Antifungal activity against Candida albicans assessed as inhibition of fungal growth incubated for 16 to 18 hrs by serial dilution method; format: functional; details: time 16-18 hrs
Aspergillus flavus [11] = assay: Antifungal activity against Aspergillus flavus assessed as inhibition of fungal growth incubated for 16 to 18 hrs by serial dilution method; format: functional; details: time 16-18 hrs
Candida albicans [12] = assay: Antifungal activity against Candida albicans assessed as inhibition of fungal growth incubated for 20 hrs by macro-broth dilution method; format: functional

Structure (SMILES): COc1ccc(/C(=C/C(=O)N2CCOCC2)c2ccc(Cl)cc2)cc1OC
- EC50 (Phytophthora infestans): 5.53 µg/mL (≈ 14.3 µM)

Structure (SMILES): Cc1ccc(S(=O)(=O)NC(=S)Nc2nnc(CC(C)C)s2)cc1
- MIC (Bacillus subtilis): 0.78 µg/mL (≈ 2.11 µM)
- MIC (Clostridioides difficile): 3.12 µg/mL (≈ 8.43 µM)
- MIC (Staphylococcus aureus [1]): 100 µg/mL (≈ 270 µM)
- MIC [2]: 12.5 µg/mL (≈ 33.7 µM)
- MIC (Streptococcus pneumoniae): 0.78 µg/mL (≈ 2.11 µM)
- MIC (Escherichia coli [3]): 6.25 µg/mL (≈ 16.9 µM)
- MIC (Klebsiella pneumoniae): 400 µg/mL (≈ 1080 µM)
- MIC (Pseudomonas aeruginosa): 6.25 µg/mL (≈ 16.9 µM)
- MIC (Salmonella typhimurium): 50 µg/mL (≈ 135 µM)
- MIC (Aspergillus niger): 50 µg/mL (≈ 135 µM)
- MIC (Aspergillus flavus [4]): 0.78 µg/mL (≈ 2.11 µM)
- MIC (Candida albicans [5]): 3.12 µg/mL (≈ 8.43 µM)
- MIC (Saccharomyces cerevisiae): 3.12 µg/mL (≈ 8.43 µM)
- MIC (Fusarium oxysporum): 1.56 µg/mL (≈ 4.21 µM)

Structure (SMILES): O=S(=O)(NC(=S)Nc1ccccc1)c1ccc(Cl)cc1
- IC50 (Carbonic anhydrase 2): 384000 nM

Structure (SMILES): CCc1nnc(NC(=S)NS(=O)(=O)c2ccc(C)cc2)s1
- MIC (Bacillus subtilis): 1.56 µg/mL (≈ 4.56 µM)
- MIC (Clostridioides difficile): 0.78 µg/mL (≈ 2.28 µM)
- MIC (Staphylococcus aureus [1]): 6.25 µg/mL (≈ 18.2 µM)
- MIC [2]: 50 µg/mL (≈ 146 µM)
- MIC (Streptococcus pneumoniae): 3.12 µg/mL (≈ 9.12 µM)
- MIC (Escherichia coli [3]): 200 µg/mL (≈ 584 µM)
- MIC (Klebsiella pneumoniae): 12.5 µg/mL (≈ 36.5 µM)
- MIC (Pseudomonas aeruginosa): 50 µg/mL (≈ 146 µM)
- MIC (Salmonella typhimurium): 3.12 µg/mL (≈ 9.12 µM)
- IC50 (DNA gyrase subunit B): 3170 nM
- IC50 [6]: 78100 nM
- IC50 (Dihydrofolate reductase): 470 nM
- MIC (Aspergillus niger): 100 µg/mL (≈ 292 µM)
- MIC (Aspergillus flavus [4]): 6.25 µg/mL (≈ 18.2 µM)
- MIC (Candida albicans [5]): 1.56 µg/mL (≈ 4.56 µM)
- MIC (Saccharomyces cerevisiae): 25 µg/mL (≈ 73 µM)
- MIC (Fusarium oxysporum): 6.25 µg/mL (≈ 18.2 µM)

Structure (SMILES): FC(F)(F)c1cc(NC(=S)Nc2nnc(-c3ccc(Cl)cc3)s2)ccc1Cl
- MIC [7]: 10.9 µM (≈ 4.9 µg/mL)

Structure (SMILES): S=C(/N=C/c1cc2cc(Cl)ccc2nc1Cl)Nc1nnc(-c2ccc(Cl)cc2)s1
- MIC (Staphylococcus aureus [8]): 3.12 µg/mL (≈ 6.52 µM)
- MIC (Escherichia coli [9]): 3.12 µg/mL (≈ 6.52 µM)
- MIC (Candida albicans [10]): 3.12 µg/mL (≈ 6.52 µM)
- MIC (Aspergillus flavus [11]): 3.12 µg/mL (≈ 6.52 µM)

Structure (SMILES): CC(=O)OC[C@H]1O[C@@H](Sc2nnc(NC(=O)c3ccc(F)cc3)s2)[C@@H](OC(C)=O)[C@H](OC(C)=O)[C@@H]1OC(C)=O
- EC50 (Phytophthora infestans): 3.43 µg/mL (≈ 5.86 µM)

Structure (SMILES): C=CCNc1nnc(-c2ccccc2OCc2ccc(Cl)cc2)s1
- MIC (Candida albicans [12]): 0.08 µg/mL (≈ 0.224 µM)

Structure (SMILES): Cc1ccc(S(=O)(=O)NC(=S)Nc2nncs2)cc1
- MIC (Bacillus subtilis): 12.5 µg/mL (≈ 39.8 µM)
- MIC (Clostridioides difficile): 200 µg/mL (≈ 636 µM)
- MIC (Staphylococcus aureus [1]): 3.12 µg/mL (≈ 9.94 µM)
- MIC [2]: 3.12 µg/mL (≈ 9.94 µM)
- MIC (Streptococcus pneumoniae): 12.5 µg/mL (≈ 39.8 µM)
- MIC (Escherichia coli [3]): 1.56 µg/mL (≈ 4.96 µM)
- MIC (Klebsiella pneumoniae): 50 µg/mL (≈ 159 µM)
- MIC (Pseudomonas aeruginosa): 25 µg/mL (≈ 79.5 µM)
- MIC (Salmonella typhimurium): 1.56 µg/mL (≈ 4.96 µM)
- IC50 (DNA gyrase subunit B): 1560 nM
- IC50 [6]: 67600 nM
- IC50 (Dihydrofolate reductase): 370 nM
- MIC (Aspergillus niger): 200 µg/mL (≈ 636 µM)
- MIC (Aspergillus flavus [4]): 50 µg/mL (≈ 159 µM)
- MIC (Candida albicans [5]): 25 µg/mL (≈ 79.5 µM)
- MIC (Saccharomyces cerevisiae): 12.5 µg/mL (≈ 39.8 µM)
- MIC (Fusarium oxysporum): 25 µg/mL (≈ 79.5 µM)

Structure (SMILES): CCCCCc1nnc(NC(=S)NS(=O)(=O)c2ccc(C)cc2)s1
- MIC (Bacillus subtilis): 200 µg/mL (≈ 520 µM)
- MIC (Clostridioides difficile): 12.5 µg/mL (≈ 32.5 µM)
- MIC (Staphylococcus aureus [1]): 0.78 µg/mL (≈ 2.03 µM)
- MIC [2]: 0.78 µg/mL (≈ 2.03 µM)
- MIC (Streptococcus pneumoniae): 200 µg/mL (≈ 520 µM)
- MIC (Escherichia coli [3]): 0.78 µg/mL (≈ 2.03 µM)
- MIC (Klebsiella pneumoniae): 1.56 µg/mL (≈ 4.06 µM)
- MIC (Pseudomonas aeruginosa): 0.78 µg/mL (≈ 2.03 µM)
- MIC (Salmonella typhimurium): 100 µg/mL (≈ 260 µM)
- IC50 (DNA gyrase subunit B): 1220 nM
- IC50 [6]: 53800 nM
- IC50 (Dihydrofolate reductase): 230 nM
- MIC (Aspergillus niger): 3.12 µg/mL (≈ 8.13 µM)
- MIC (Aspergillus flavus [4]): 12.5 µg/mL (≈ 32.5 µM)
- MIC (Candida albicans [5]): 200 µg/mL (≈ 520 µM)
- MIC (Saccharomyces cerevisiae): 400 µg/mL (≈ 1040 µM)
- MIC (Fusarium oxysporum): 1.56 µg/mL (≈ 4.06 µM)

Structure (SMILES): O=S(=O)(NC(=S)Nc1ccccc1)c1ccccc1
- IC50 (Carbonic anhydrase 2): 422000 nM

Structure (SMILES): Cc1ccc(S(=O)(=O)NC(=S)Nc2nnc(CCC(C)C)s2)cc1
- MIC (Bacillus subtilis): 100 µg/mL (≈ 260 µM)
- MIC (Clostridioides difficile): 1.56 µg/mL (≈ 4.06 µM)
- MIC (Staphylococcus aureus [1]): 1.56 µg/mL (≈ 4.06 µM)
- MIC [2]: 6.25 µg/mL (≈ 16.3 µM)
- MIC (Streptococcus pneumoniae): 50 µg/mL (≈ 130 µM)
- MIC (Escherichia coli [3]): 25 µg/mL (≈ 65 µM)
- MIC (Klebsiella pneumoniae): 0.78 µg/mL (≈ 2.03 µM)
- MIC (Pseudomonas aeruginosa): 3.12 µg/mL (≈ 8.13 µM)
- MIC (Salmonella typhimurium): 0.78 µg/mL (≈ 2.03 µM)
- IC50 (DNA gyrase subunit B): 1620 nM
- IC50 [6]: 66700 nM
- IC50 (Dihydrofolate reductase): 350 nM
- MIC (Aspergillus niger): 0.78 µg/mL (≈ 2.03 µM)
- MIC (Aspergillus flavus [4]): 3.12 µg/mL (≈ 8.13 µM)
- MIC (Candida albicans [5]): 12.5 µg/mL (≈ 32.5 µM)
- MIC (Saccharomyces cerevisiae): 0.78 µg/mL (≈ 2.03 µM)
- MIC (Fusarium oxysporum): 0.78 µg/mL (≈ 2.03 µM)

Structure (SMILES): Fc1ccc(NC(=S)Nc2nnc(-c3ccc(Cl)cc3)s2)cc1
- MIC [7]: 11 µM (≈ 4 µg/mL)

Structure (SMILES): Fc1ccc(NC(=S)Nc2nnc(-c3ccc(F)cc3)s2)cc1
- MIC [7]: 10.9 µM (≈ 3.8 µg/mL)

Structure (SMILES): CC[C@@H](CO)NCCN[C@@H](CC)CO [ETHAMBUTOL]
- MIC [7]: 11.5 µM (≈ 2.35 µg/mL)

Structure (SMILES): OC(Cn1cncn1)(Cn1cncn1)c1ccc(F)cc1F [FLUCONAZOLE]
- MIC (Candida albicans [12]): 0.05 µg/mL (≈ 0.163 µM)
- MIC (Staphylococcus aureus [8]): 6.25 µg/mL (≈ 20.4 µM)
- MIC (Escherichia coli [9]): 6.25 µg/mL (≈ 20.4 µM)
- MIC (Candida albicans [10]): 6.25 µg/mL (≈ 20.4 µM)
- MIC (Aspergillus flavus [11]): 6.25 µg/mL (≈ 20.4 µM)
- MIC (Aspergillus niger): 1.56 µg/mL (≈ 5.09 µM)
- MIC (Aspergillus flavus [4]): 0.78 µg/mL (≈ 2.55 µM)
- MIC (Candida albicans [5]): 0.78 µg/mL (≈ 2.55 µM)
- MIC (Saccharomyces cerevisiae): 0.78 µg/mL (≈ 2.55 µM)
- MIC (Fusarium oxysporum): 0.78 µg/mL (≈ 2.55 µM)

Structure (SMILES): NNC(=O)c1ccncc1 [ISONIAZID]
- MIC [7]: 17.8 µM (≈ 2.44 µg/mL)

Structure (SMILES): NC(=O)N/N=C/c1ccc([N+](=O)[O-])o1 [NITROFURAZONE]
- MIC (Staphylococcus aureus [8]): 6.25 µg/mL (≈ 31.5 µM)
- MIC (Escherichia coli [9]): 6.25 µg/mL (≈ 31.5 µM)
- MIC (Candida albicans [10]): 6.25 µg/mL (≈ 31.5 µM)
- MIC (Aspergillus flavus [11]): 6.25 µg/mL (≈ 31.5 µM)
